In assay [1] the target is T1, human ERα (Homo sapiens, UniProt P03372).
T1 sequence (P03372 1-595): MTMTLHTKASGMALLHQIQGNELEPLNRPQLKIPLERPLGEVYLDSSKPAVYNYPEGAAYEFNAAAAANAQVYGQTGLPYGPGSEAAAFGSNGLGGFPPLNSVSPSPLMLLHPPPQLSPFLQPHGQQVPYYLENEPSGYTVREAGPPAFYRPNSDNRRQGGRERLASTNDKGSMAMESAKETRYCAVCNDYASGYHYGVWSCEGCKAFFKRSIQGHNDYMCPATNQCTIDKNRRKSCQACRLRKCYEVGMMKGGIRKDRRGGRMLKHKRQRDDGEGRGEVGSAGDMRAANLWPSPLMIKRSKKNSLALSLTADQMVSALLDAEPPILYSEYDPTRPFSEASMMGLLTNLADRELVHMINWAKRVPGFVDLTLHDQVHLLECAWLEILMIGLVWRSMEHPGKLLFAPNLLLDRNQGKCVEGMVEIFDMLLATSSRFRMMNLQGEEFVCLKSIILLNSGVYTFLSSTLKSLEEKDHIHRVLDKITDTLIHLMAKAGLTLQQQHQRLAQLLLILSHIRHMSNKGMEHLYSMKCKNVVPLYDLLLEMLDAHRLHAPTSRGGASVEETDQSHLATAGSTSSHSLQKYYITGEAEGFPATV
The assay is described as follows: Creatine kinase expression (ER/CK) in Ad5-wt-hERα infected HAECT-1 cells. Particulars: for ER/CK % E2: efficacy relative to the maximal stimulation observed with E2.

Assay [2] deals with T1, human ERα. The assay is described as follows: IL-6 expression (ELISA, ER/IL-6) in Ad5-wt-hERα infected HAECT-1 cells. Particulars: for ER/IL-6 % E2: efficacy relative to the maximal inhibition observed with E2.
Assay [3] concerns the target T1, human ERα. The assay is described as follows: NF-κB luciferase reporter (ER/NF-KB-luc) in Ad5-wt-hERα infected HAECT-1 cells. Particulars: for IC50: ER/NF-KB-luc IC50, Ad5-wt-ER infected HAECT-1 cells, IL-1β; for Emax: HAECT1, read-out: ER/NF-KB-luc % E2, efficacy relative to the maximal inhibition observed with E2. Background: In a reporter assay the amount or activity of a reporter protein is the signal.

Structures are written as SMILES.

In the case of `COc1ccccc1-n1nc(-c2ccc(O)cc2O)c2ccc(O)cc21` [Example 12, 4-[6-hydroxy-1-(2-methoxyphenyl)-1H-indazol-3-yl]benzene-1,3-diol], at human ERα [1], the EC50 stood at 1200 nM and the “ER/CK % E2” value was determined as 58 % E2. Also, on human ERα [2], the IC50 turned out to be 7610 nM and the “ER/IL-6 % E2” value is 73 % E2. On human ERα [3], the IC50 worked out at 208 nM and the Emax was found to be 61%.
Regarding `Oc1ccc(-c2nn(-c3ccc(OC(F)(F)F)cc3)c3cc(O)ccc23)c(O)c1` [Example 13, 4-{6-hydroxy-1-[4-(trifluoromethoxy)phenyl]-1H-indazol-3-yl}benzene-1,3-diol], on human ERα [1], a half-maximal effect (EC50) was put at 828 nM and the “ER/CK % E2” value is on record as 47 % E2. For the same molecule, at human ERα [2], the IC50 was 601 nM and the “ER/IL-6 % E2” value was found to be 83 % E2. Moreover, on human ERα [3], the IC50 amounted to 133 nM and the Emax is 97%.
With `Oc1ccc(-c2nn(-c3ccccc3Cl)c3cc(O)ccc23)c(O)c1` [Example 16, 4-[1-(2-chlorophenyl)-6-hydroxy-1H-indazol-3-yl]benzene-1,3-diol], at human ERα [1], the EC50 came out at 438 nM and the “ER/CK % E2” value was found to be 45 % E2. Moreover, on human ERα [2], the half-maximal inhibitory concentration (IC50) came out at 81 nM and the “ER/IL-6 % E2” value is listed as 58 % E2. At human ERα [3], the IC50 worked out at 95 nM and the Emax turned out to be 79%.
Regarding `Cn1nc(-c2ccc(O)cc2)c2cccc(Cl)c21` [Example 126, 4-(7-chloro-1-methyl-1H-indazol-3-yl)phenol], at human ERα [1], the 50% effective concentration (EC50) was 387 nM and the “ER/CK % E2” value came out at 52 % E2. For the same molecule, on human ERα [2], the midpoint of inhibition, the IC50, lay at 122 nM and the “ER/IL-6 % E2” value is 52 % E2. At human ERα [3], inhibition was half-maximal at 134 nM (IC50) and the Emax was found to be 85%.
Regarding `Oc1ccc(-c2n[nH]c3cc(Cl)c(F)cc23)cc1` [Example 131, 4-(6-chloro-5-fluoro-1H-indazol-3-yl)phenol], at human ERα [1], the concentration giving a half-maximal response (EC50) is 815 nM and the “ER/CK % E2” value amounted to 65 % E2. In addition, on human ERα [2], the IC50 is 380 nM and the “ER/IL-6 % E2” value turned out to be 72 % E2. Further, at human ERα [3], the IC50 came to 195 nM and the Emax was 82%.
As for `CCCCn1nc(-c2ccc(O)cc2)c2ccccc21` [Example 139, 4-(1-butyl-1H-indazol-3-yl)phenol], at human ERα [1], a half-maximal response (EC50) required 722 nM and the “ER/CK % E2” value is on record as 36 % E2. Further, on human ERα [2], the concentration for half-maximal inhibition (IC50) was determined as 329 nM and the “ER/IL-6 % E2” value is 40 % E2. In addition, on human ERα [3], the IC50 came out at 183 nM and the Emax worked out at 67%.
For `Oc1ccc(-c2nn(Cc3ccccc3)c3c(F)cccc23)cc1` [Example 145, 4-(1-benzyl-7-fluoro-1H-indazol-3-yl)phenol], at human ERα [1], the EC50 was determined as 439 nM and the “ER/CK % E2” value is 48 % E2. For the same molecule, at human ERα [2], the midpoint of inhibition, the IC50, lay at 97 nM and the “ER/IL-6 % E2” value came to 60 % E2. On human ERα [3], the IC50 turned out to be 125 nM and the Emax amounted to 66%.
As for `Oc1ccc(-c2nn(Cc3ccccc3)c3c(Cl)cccc23)c(O)c1` [Example 149, 4-(1-benzyl-7-chloro-1H-indazol-3-yl)benzene-1,3-diol], on human ERα [1], the EC50 is 527 nM and the “ER/CK % E2” value turned out to be 30 % E2. Moreover, on human ERα [2], the midpoint of inhibition, the IC50, lay at 115 nM and the “ER/IL-6 % E2” value was 49 % E2. On human ERα [3], the IC50 amounted to 319 nM and the Emax is 67%.
Consider `Cn1nc(-c2ccc(O)cc2)c2cccc(C(F)(F)F)c21` [Example 169, 4-[1-methyl-7-(trifluoromethyl)-1H-indazol-3-yl]phenol], for which, at human ERα [1], the response was half-maximal at 364 nM (EC50) and the “ER/CK % E2” value amounted to 38 % E2. Further, on human ERα [2], the IC50 turned out to be 65 nM and the “ER/IL-6 % E2” value amounted to 65 % E2. On human ERα [3], 65 nM corresponded to half-maximal inhibition (IC50) and the Emax came to 69%.

As usually defined, the EC50 is the concentration that produces a half-maximal response. A high value points to a need for much substance. The IC50 is the concentration that inhibits the measured activity by half. Read a high IC50 as lower potency.

Source of the values: patent US7241791B2, “Substituted 4-(indazol-3-yl)phenols” (Wyeth, priority 2002, dated 2007).
